# Experimental data published in patent US20060051436A1, “Composition for controlling excessive calorie intake-induced disorder, food product for controlling excessive calorie intake-induced disorder, skin preparation for external use for controlling excessive calorie intake-induced disorder, and controlling agent for excessive calorie intake-induced …” (Towa Corporation Kabushiki Kaisha, priority 2004, published 2006).
# Marks after values point to notes of the source that are not given here.
# Columns and labels:
# [1] = tested on: Otsuka Long-Evans Tokushima Fatty (OLETF) rats; assay: Serum and lipoprotein fraction cholesterol, phospholipid, triglyceride in OLETF rats; format: in vivo, rat; conditions: end of six-week experiment, M±SE
# Method: Six week after the initiation of the experiment, without prior abstinence from feed, each rat was anesthetized by administering approximately 50 mg/kg of pentobarbital sodium (product of Dainippon Pharmaceutical Co., Ltd.) into the abdominal cavity to remove all of its blood via the abdominal aorta with an injection syringe. This operation was performed during the period from 10:00 am to 12:00 am. The blood obtained by the operation was set aside for 1 hour at room temperature and subsequently at 4° C. for a period in the range of 1 to 2 hours. Thereafter, blood serum was separated by means of centrifugation at 2500 rpm at 4° C. for 10 minutes. Fractions of various lipoproteins were separated from the blood serum obtained at the time of whole blood extraction. […] Therefore, it is not possible with step-wise density gradient ultracentrifugation employed for this experiment to exclusively separate native LDL, and the LDL fraction separated in this stage contains HDL1 that existed together with LDL. The cholesterol, phospholipid, and triglyceride contents in the serum and each lipoprotein fraction were enzymatically measured with commercial kits (Cholesterol E-Test Wako, Phospholipid C-Test Wako, and Triglyceride E-Test Wako; products of Wako Pure Chemical Industries, Ltd.), respectively.
# [2] = tested on: Otsuka Long-Evans Tokushima Fatty (OLETF) rats; assay: Serum apolipoprotein contents in OLETF rats; format: in vivo, rat; conditions: M±SE
# Method: The respective contents of various apolipoproteins, i.e. apoA-I, apoB, and apoE, as well as the respective apoE contents in the LDL and HDL fractions, were determined by the rocket immunoelectrophoresis method described in “Age-related changes in serum concentrations of apolipoprotein A-I, E, and A-IV in SHRSP” by Hiroshi Ogawa and 4 other members (G.B., Journal of Hypertension, vol. 4, p 429-453, 1986). The aforementioned immunoelectrophoresis method is in accordance with the Laurell method and adjustment of a part of the method presented by C. B. Laurell in “Quantitative estimation of proteins by electrophoresis in agarose-gel containing antibodies” (USA, Analytical Biochemistry, vol. 15, p 42-52, 1966). The antibodies used for this measurement were specific antibodies obtained from rabbits by using antigens that were various apolipoproteins separated and refined from rat serum. Furthermore, apoB/apoA-I was calculated from the results of measurement of apoA-I and apoB.
# [3] = tested on: cholesterol 7α-hydroxylase; assay: 7α-hydroxylase activity in liver microsome fraction of OLETF rats; format: in vivo, rat; conditions: M±SE
# Method: Purified liver microsome fraction was produced according to a normal method, and the cholesterol in the liver microsome fraction was used as the substrate. The activity of cholesterol 7α-hydroxylase was determined by HPLC in accordance with the method described in “An improved method for assay of cholesterol 7α-hydroxylase activity” by Tadashi Ogishima and one other member (USA, Analytical Biochemistry, vol. 158, p 228-232, 1986). The results of measurement of 7α-hydroxylase activity are shown in terms of the amount of HCO (7α-hydroxy-4-cholesten-3-on) generated per 1 mg of protein content in one minute in the microsome fraction (pmol/min/mg of microsome protein).
# [4] = Body weight and food intake of OLETF rats; format: in vivo, rat; conditions: M±SE
# Description: The rats that were the subjects of the experiment were divided into three groups: a Control group to be fed a control diet, a Hercampuri group to be fed a Hercampuri-enriched diet, and an Acarbose group to be fed an Acarbose-enriched diet. […] This control diet was purified animal feed containing casein as the source of protein. The Hercampuri-enriched diet fed to the rats in the Hercampuri group was produced by adding Hercampuri extract powder at a mixing ratio of 2% to the control diet. The Acarbose-enriched diet fed to the rats in the Acarbose group was produced by adding Acarbose (product of Bayer AG) at a mixing ratio of 0.2% to the control diet. For each experimental diet, the amount of the added subject ingredient was compensated for by adjusting the amount of corn starch. Male OLETF rats and LETO rats delivered from Tokushima Research Institute of Otsuka Pharmaceutical Co., Ltd. were used as the subject animals. Each one of these OLETF rats and LETO rats was born during the period of June 10th to June 13th in 2002. […] The rats had free access to feed (CE-2: product of Clea Japan, Inc.) and drinking water (tap water). […] During the experiment, the body weights and the amounts of food intake were measured every other day. […]
# [5] = tested on: Otsuka Long-Evans Tokushima Fatty (OLETF) rats; assay: Liver weight ratio and liver lipid contents in OLETF rats; format: in vivo, rat; conditions: end of six-week experiment, M±SE
# Method: Immediately after the extraction of all the blood, the liver was quickly removed from all the rats in each group, and the wet weight of each liver was measured. The liver weight ratio of each rat is shown in terms of the liver weight per unit of body weight (100 g) at the time of removal. Extraction of lipid from each liver was performed in accordance with the method described in “A simple method for the isolation and purification of total lipids from animal tissues” (Folch and two other members, Journal of Biological Chemistry, vol. 226, p 497-509, 1957). A part of the lower layer of the liquid liver extract (the chloroform-containing layer) was separated, and the chloroform contained therein was evaporated under nitrogen gas current. The liquid with the chloroform removed was used as a sample for measuring liver lipid contents. The cholesterol, phospholipid, and triglyceride contents in the liver were enzymatically measured with commercial kits (Cholesterol E-Test Wako, Phospholipid C-Test Wako, and Triglyceride E-Test Wako; products of Wako Pure Chemical Industries, Ltd.), respectively.
# [6] = tested on: Otsuka Long-Evans Tokushima Fatty (OLETF) rats; assay: Serum glucose, free fatty acids and insulin in OLETF rats; format: in vivo, rat; conditions: end of six-week experiment, M±SE
# Method: Six week after the initiation of the experiment, without prior abstinence from feed, each rat was anesthetized by administering approximately 50 mg/kg of pentobarbital sodium (product of Dainippon Pharmaceutical Co., Ltd.) into the abdominal cavity to remove all of its blood via the abdominal aorta with an injection syringe. This operation was performed during the period from 10:00 am to 12:00 am. The blood obtained by the operation was set aside for 1 hour at room temperature and subsequently at 4° C. for a period in the range of 1 to 2 hours. Thereafter, blood serum was separated by means of centrifugation at 2500 rpm at 4° C. for 10 minutes. Furthermore, the glucose and free fatty acid content in he serum were enzymatically measured with commercial kits (Glucose CII-Test Wako and NEFA C-Test Wako; products of Wako Pure Chemical Industries, Ltd.), respectively. The serum insulin content was determined in accordance with the Sandwich ELISA (enzyme-linked immunosorbent assay) method using a Rat insulin ELISA kit (product of Shibayagi Co., Ltd.). Therefore, the insulin content is shown in terms of Immuno-reactive insulin (IRI; pg/ml).
# [7] = tested on: streptozotocin (STZ)-induced diabetic rats; conditions: Planta Medica 1994, 1995; cited from earlier work
SMILES,Serum Cholesterol [1],Serum Phospholipid [1],Serum Triglyceride [1],ApoB/apoA-I (×100) ([2]; calculated from apoA-I and apoB),Serum apoA-I ([2]; end of six-week experiment),Serum apoB ([2]; end of six-week experiment),Serum apoE ([2]; end of six-week experiment),7α-hydroxylase [3] [nmol/min/mg protein],Food intake ([4]; average over six weeks),Body weight ([4]; end of six-week experiment),Liver Cholesterol [5] [mg/wet g],Liver Phospholipid [5] [mg/wet g],Liver Triglyceride [5] [mg/wet g],Liver weight [5] [g/100 g B.W.],Serum FFA [6],Serum Glucose [6],Serum IRI (immuno-reactive insulin) [6],Blood sugar levels [7]
C[C@H]1O[C@H](O[C@H]2[C@H](O)[C@@H](O)[C@@H](O[C@H]3[C@H](O)[C@@H](O)C(O)O[C@@H]3CO)O[C@@H]2CO)[C@H](O)[C@@H](O)[C@@H]1N[C@H]1C=C(CO)[C@@H](O)[C@H](O)[C@H]1O (stereo partly drawn) [Acarbose],150 ± 11^b mg/dL,178 ± 10^b mg/dL,55.6 ± 1.7^c mg/dL,3.15 ± 0.06^c,126 ± 4^a mg/dL,3.95 ± 0.14^b mg/dL,55.5 ± 2.7^b mg/dL,34.5,12.9 ± 0.9^a g/rat/day,639 ± 14^b g,5.39,32.9,75.4,3.40,751 ± 38^c μEq/L,193 ± 12^c mg/dL,665 ± 231^b pg/mL,
COc1cc(O)c2c(=O)c3c(O)ccc(O)c3oc2c1 [Bellidifolin],,,,,,,,,,,,,,,,,,has a function of reducing blood sugar levels
